These are literature values, as cited in patent US6346264B1, “Supplement for restoring growth hormone levels” (International Health Products and Services Ltd., priority 1999, dated 2002).

Read-outs that look alike come from different tables or passages of the source.

The test system of data set [1] is hGH release. The following applies: low doses in the region of 200 mg (Matteini).
The conditions of data set [2]: after six months of usage, without exercise.
The conditions of data set [3]: 4 months, deficient adults.
The conditions of data set [4]: 6 months, growth hormone deficient patients.
[5] abbreviates: 202 patients, age 39-74, hGH injection.

Consider `N=C(N)NCCC[C@H](N)C(=O)O` [arginine], for which, in data set [1], the hGH release result is “can elevate hGH release”.

Take “hGH: human growth hormone, medical name Somatotropin, produced in the anterior pituitary gland; available as injectable bio-synthetic product”: under setting [5], the “increase in healing capacity” value is listed as 71%; the “individuals describing improvement in duration of penile erection” value is 62%; the “individuals describing increase and improvement in sexual potency and frequency of sexual relations” value is 75%; the “individuals with improved energy levels” value is 84%. Also, under setting [5], the “individuals with improved muscle strength” value is reported as 88%. In addition, for the setting “high frequency-low dose injections”, the IGF-1 levels result was “elevated”. Further, in data set [2], the “average increase in lean muscle mass” value is 8% and the loss of fat is on record as 14.4%. Also, in data set [3], the IGF-1 levels entry is reported as “normalized”; the fat result is recorded as “reduced”; the muscle thickness entry was “increased”; the “renal plasma flow and glomerular filtration rates” value was “raised from subnormal levels to levels comparable for their age”. In data set [4], the “Insulin-like Growth Factor 1 (IGF-1)” value is reported as “increase”, the fat entry was “reduction”, the lean body mass result is reported as “increase” and the metabolic rate entry is recorded as “increased”. In addition, in data set [4], the plasma cholesterol entry is “lowered”.
